The record followed here is PubChem BioAssay AID330 (DTP/NCI, 2004).

Values joined by “and” are separate entries in the source; they are usually repeats but may differ in a detail not shown here. Identical values can stand only once. Toxic doses and inconclusive results are not listed.

The assay deals with P388 leukemia ip, CD2F1 mice, survival T/C. The experiment in a line: NCI In Vivo Anticancer Drug Screen. Data for tumor model P388 Leukemia (intraperitoneal) in CD2F1 (CDF1) mice. The settings on record: endpoint: median survival time, higher = longer survival. Put shortly: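 Mice carrying the transplanted tumor received test compound or vehicle. Survival was recorded in each group, and the value is the treated-group measurement divided by that of the vehicle-treated control group.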

[1] abbreviates: dose: 12.5 mg/kg/injection, schedule: Q01DX009 (ip), vehicle: saline.
Setting [2] is: dose: 25.0 mg/kg/injection, schedule: Q01DX009 (ip), vehicle: saline.
Where [3] appears, read: dose: 50.0 mg/kg/injection, schedule: Q01DX009 (ip), vehicle: saline.
Setting [4] is: dose: 100.0 mg/kg/injection, schedule: Q01DX009 (ip), vehicle: saline.
[5] abbreviates: dose: 200.0 mg/kg/injection, schedule: Q01DX009 (ip), vehicle: saline.
Where [6] appears, read: dose: 50.0 mg/kg/injection, schedule: Q01DX001 (ip), vehicle: Klucel (hydroxypropylcellulose) (HPC).
Setting [7] is: dose: 100.0 mg/kg/injection, schedule: Q01DX001 (ip), vehicle: Klucel (hydroxypropylcellulose) (HPC).
Where [8] appears, read: dose: 200.0 mg/kg/injection, schedule: Q01DX001 (ip), vehicle: Klucel (hydroxypropylcellulose) (HPC).
Setting [9] is: dose: 50.0 mg/kg/injection, schedule: Q01DX005 (ip), vehicle: saline with Tween-80.
The mark [10] stands for this setting: dose: 100.0 mg/kg/injection, schedule: Q01DX005 (ip), vehicle: saline with Tween-80.
The mark [11] stands for this setting: dose: 200.0 mg/kg/injection, schedule: Q01DX005 (ip), vehicle: saline with Tween-80.
Where [12] appears, read: dose: 30.0 mg/kg/injection, schedule: Q01DX005 (ip), vehicle: saline with Tween-80.
Where [13] appears, read: dose: 60.0 mg/kg/injection, schedule: Q01DX005 (ip), vehicle: saline with Tween-80.
Where [14] appears, read: dose: 120.0 mg/kg/injection, schedule: Q01DX005 (ip), vehicle: saline with Tween-80.
The mark [15] stands for this setting: dose: 240.0 mg/kg/injection, schedule: Q01DX005 (ip), vehicle: saline with Tween-80.
The mark [16] stands for this setting: dose: 60.0 mg/kg/injection, schedule: Q01DX005 (ip), vehicle: Klucel (hydroxypropylcellulose) (HPC).
Where [17] appears, read: dose: 120.0 mg/kg/injection, schedule: Q01DX005 (ip), vehicle: Klucel (hydroxypropylcellulose) (HPC).
[18] abbreviates: dose: 240.0 mg/kg/injection, schedule: Q01DX005 (ip), vehicle: Klucel (hydroxypropylcellulose) (HPC).

With `O=C(CCN1CCOCC1)c1ccccc1`, the T/C was 100 % of control under setting [1]; 101 % of control under setting [2]; 100 % of control under setting [3]; 104 % of control under setting [4]; 103 % of control under setting [5].
Consider `Clc1nc2nc(Cl)c(Cl)n2c(Cl)c1Cl`, for which the T/C (dose: 100.0 mg/kg/injection, schedule: Q04DX002 (ip), vehicle: saline with Tween-80) is 105 % of control and the T/C (dose: 200.0 mg/kg/injection, schedule: Q04DX002 (ip), vehicle: saline with Tween-80) was 117 % of control.
Turning to `CC(=O)NC(CNC(C)C)C(=O)O` (stereo not drawn), the T/C was 102 % of control under setting [6], 106 % of control under setting [7] and 98 % of control under setting [8].
`CC(=O)C(=Cc1ccc(C)cc1)C(C)=O`: the T/C by setting is: under setting [9], 99 % of control; under setting [10], 103 % of control; under setting [11], 110 % of control.
Regarding `CC12CC3CC(C)(C1)CC(SC(=N)N)(C3)C2`, the T/C (dose: 7.5 mg/kg/injection, schedule: Q01DX005 (ip), vehicle: saline with Tween-80) was 105 % of control; the T/C (dose: 15.0 mg/kg/injection, schedule: Q01DX005 (ip), vehicle: saline with Tween-80) is 104 % of control; the T/C under setting [12] is 106 % of control.
For `COc1ccc(CN2COc3c(ccc4cccnc34)C2)cc1`, the T/C is 93 % of control (dose: 100.0 mg/kg/injection, schedule: Q04DX003 (ip), vehicle: Klucel (hydroxypropylcellulose) (HPC)); 93 % of control (dose: 200.0 mg/kg/injection, schedule: Q04DX003 (ip), vehicle: Klucel (hydroxypropylcellulose) (HPC)); 111 % of control (dose: 400.0 mg/kg/injection, schedule: Q04DX003 (ip), vehicle: Klucel (hydroxypropylcellulose) (HPC)).
For the compound `CC1=CC(=O)[C@@H](O)[C@]2(C)[C@H]3[C@@]4(O)OC[C@]35[C@H]([C@@H](C)[C@H]4O)[C@@H](OC(=O)CC(C)C)C(=O)O[C@@H]5C[C@@H]12`, the T/C is 104 % of control and 122 % of control (dose: 0.5 mg/kg/injection, schedule: Q01DX005 (ip), vehicle: saline + alcohol); 112 % of control (dose: 1.0 mg/kg/injection, schedule: Q01DX005 (ip), vehicle: saline + alcohol).
Turning to `CCN(CC)C(C)C(=O)Nc1c(C)cccc1Cl` (stereo not drawn), the T/C under setting [1] was 100 % of control, the T/C under setting [2] was 90 % of control and the T/C under setting [3] was 100 % of control.
In the case of `CN1CC(O)c2cc(N=NC(N)=O)c(O)cc21` (stereo not drawn), the T/C is 96 % of control (dose: 50.0 mg/kg/injection, schedule: Q01DX005 (ip), vehicle: Klucel (hydroxypropylcellulose) (HPC)); 91 % of control (dose: 100.0 mg/kg/injection, schedule: Q01DX005 (ip), vehicle: Klucel (hydroxypropylcellulose) (HPC)); 108 % of control (dose: 200.0 mg/kg/injection, schedule: Q01DX005 (ip), vehicle: Klucel (hydroxypropylcellulose) (HPC)).
For `N#CC(C(=O)C(N)=O)c1ccc(Cl)cc1Cl` (stereo not drawn), the T/C under setting [13] was 104 % of control, the T/C under setting [14] is 103 % of control and the T/C under setting [15] is 100 % of control.
Consider `COc1cc2c(cc1O)CCCC=C2`, for which the T/C (dose: 100.0 mg/kg/injection, schedule: Q01DX009 (ip), vehicle: gum acacia) is 113 % of control; the T/C (dose: 200.0 mg/kg/injection, schedule: Q01DX009 (ip), vehicle: gum acacia) is 105 % of control; the T/C (dose: 400.0 mg/kg/injection, schedule: Q01DX009 (ip), vehicle: gum acacia) was 106 % of control.
With `CN(C)C(=O)c1ccccc1SC(=S)NCc1ccccc1`, the T/C reads like this: under setting [16], 102 % of control; under setting [17], 102 % of control; under setting [18], 102 % of control.
As to `CCC(=O)N(C)C(C)C(=O)OC1CC(=O)N(C)c2cc(cc(OC)c2Cl)CC2(C)OC2/C=C/C(OC)C2(O)CC(OC(=O)N2)C(C)C2OC12C` (stereo not drawn), the T/C reads like this: (dose: 25.0 micrograms/kg/injection, schedule: Q01DX009 (ip), vehicle: saline + alcohol) 124 % of control; (dose: 50.0 micrograms/kg/injection, schedule: Q01DX009 (ip), vehicle: saline + alcohol) 120 % of control and 124 % of control; (dose: 100.0 micrograms/kg/injection, schedule: Q01DX009 (ip), vehicle: saline + alcohol) 124 % of control; (dose: 800.0 micrograms/kg/injection, schedule: Q01DX009 (ip), vehicle: saline + alcohol) 152 % of control.
On to `Oc1[nH]c2ccccc2c1N=NC(=S)NC1C2CC3CC(C2)CC1C3` (stereo not drawn), for which the T/C runs as follows: under setting [9], 103 % of control; under setting [10], 100 % of control; under setting [11], 103 % of control.
Turning to `O=C(OCOC(=O)N1CCOCC1)N1CCOCC1`, the T/C under setting [13] was 105 % of control and the T/C under setting [15] was 94 % of control.
As to `CC(C)C1[C@H]2OC(=O)[C@@H]1C1CCC3CN(C)C2C31C` (stereo partly drawn), the T/C is, setting by setting: (dose: 1.25 mg/kg/injection, schedule: Q01DX005 (ip), vehicle: Klucel (hydroxypropylcellulose) (HPC)) 99 % of control; (dose: 2.5 mg/kg/injection, schedule: Q01DX005 (ip), vehicle: Klucel (hydroxypropylcellulose) (HPC)) 99 % of control; (dose: 5.0 mg/kg/injection, schedule: Q01DX005 (ip), vehicle: Klucel (hydroxypropylcellulose) (HPC)) 96 % of control; (dose: 10.0 mg/kg/injection, schedule: Q01DX005 (ip), vehicle: Klucel (hydroxypropylcellulose) (HPC)) 95 % of control.
With `CCOC(=O)N(C)C`, the T/C runs as follows: under setting [2], 89 % of control; under setting [3], 91 % of control; under setting [4], 99 % of control; under setting [5], 105 % of control.
For `O=c1c2cncnc2sc2nccn12`, the T/C is 99 % of control under setting [13], 98 % of control under setting [14] and 95 % of control under setting [15].
As to `CC(C)C1CCC2(C)OC2C1=O` (stereo not drawn), the T/C (dose: 25.0 mg/kg/injection, schedule: Q04DX002 (ip), vehicle: saline) was 100 % of control; the T/C (dose: 50.0 mg/kg/injection, schedule: Q04DX002 (ip), vehicle: saline) is 98 % of control; the T/C (dose: 100.0 mg/kg/injection, schedule: Q04DX002 (ip), vehicle: saline) was 100 % of control and 101 % of control; the T/C (dose: 200.0 mg/kg/injection, schedule: Q04DX002 (ip), vehicle: saline) is 100 % of control; the T/C (dose: 400.0 mg/kg/injection, schedule: Q04DX002 (ip), vehicle: saline) is 112 % of control.
For `O=C1c2c(O)cccc2C(Br)c2cccc(O)c21`, the T/C is 107 % of control under setting [16], 114 % of control under setting [17] and 98 % of control under setting [18].
As to `O=[N+]([O-])c1ccc(N2CCN(Cc3ccccc3)CC2)c2c1no[n+]2[O-]`, the T/C is 100 % of control (dose: 37.5 mg/kg/injection, schedule: Q04DX003 (ip), vehicle: saline); 104 % of control (dose: 37.5 mg/kg/injection, schedule: Q04DX003 (ip), vehicle: suspension in saline); 97 % of control (dose: 75.0 mg/kg/injection, schedule: Q04DX003 (ip), vehicle: saline); 120 % of control (dose: 75.0 mg/kg/injection, schedule: Q04DX003 (ip), vehicle: suspension in saline); 100 % of control (dose: 150.0 mg/kg/injection, schedule: Q04DX003 (ip), vehicle: saline); 109 % of control (dose: 150.0 mg/kg/injection, schedule: Q04DX003 (ip), vehicle: suspension in saline). Further, the T/C runs as follows: (dose: 300.0 mg/kg/injection, schedule: Q04DX003 (ip), vehicle: saline) 100 % of control; (dose: 300.0 mg/kg/injection, schedule: Q04DX003 (ip), vehicle: suspension in saline) 104 % of control.
As to `CN(CCOc1c(I)cc(I)cc1I)CC(O)C(O)C(O)C(O)CO` (stereo not drawn), the T/C was 110 % of control under setting [6]; 94 % of control (dose: 50.0 mg/kg/injection, schedule: Q01DX009 (ip), vehicle: Klucel (hydroxypropylcellulose) (HPC)); 108 % of control under setting [7]; 109 % of control under setting [8].
`C[CH2][Sn]([CH2]C)([O]P(=O)(C[Si](C)(C)C)c1ccccc1)[O]P(=O)(C[Si](C)(C)C)c1ccccc1` (stereo not drawn): the T/C runs as follows: under setting [12], 115 % of control; under setting [14], 151 % of control.
